# From patent US20050233453A1, “6-O-sulfated N-acetylheparosan and hematopoietic stem cell growth auxiliary agent” (SEIKAGAKU CORPORATION, priority 2004, published 2005)
# Test system: plasma
# Assay: Measurement of activated partial thromboplastin time (APTT)
# Settings: test substance concentration of 100 μg/ml, rat plasma
# Protocol: Hundred μl of plasma obtained by centrifuging at 1000×g for 10 minutes blood sampled from descending aorta of a rat with 1/10 volume of 3.2% […] and 100 μl of a different concentration of N-desulfated-N-reacetylated heparin or each 6-O-sulfated-N-acetylheparosan (Fraction I derived from Reaction-A, Fraction II derived from Reaction-A, and Reaction-B Product) were placed in a cup for measurement and the whole was kept at 37° C. for 1 minute. Thereafter, 100 μl of Actin (trade name: Mitsubishi Pharma Corporation) kept at 37° C. beforehand was added thereto, followed by maintenance at the temperature for 2 minutes. Then, 100 μl of a 0.02M calcium chloride solution kept at 37° C. was added and a time required for the occurrence of coagulation from this point was measured by means of an automatic blood coagulation-measuring apparatus (KC-10A; manufactured by Amelung).
substance,measurement,value
N-desulfated-N-reacetylated heparin [reference compound],APTT,≥ 80 s
